According to ChEMBL document CHEMBL3734667 (Bioorg Med Chem, 2015):

How the values were obtained:
Coxsackievirus B5 = experiment: Antiviral activity against human CVB5 infected in african green monkey Vero76 cells assessed as inhibition of virus-induced cytopathogenicity after 3 days by plaque reduction assay; format: functional, organism-based; settings: Enterovirus B, Vero 76, 72 h
[1] = Cytotoxicity against human MT4 cells assessed as cell viability after 96 hrs by MTT assay; format: cell-based
Vaccinia virus = experiment: Antiviral activity against Vaccinia virus; format: functional, organism-based; settings: Orthopoxvirus vaccinia
[2] = Cytotoxicity against MDBK cells assessed as cell viability after 48 to 96 hrs by MTT assay; format: cell-based, Bos taurus; settings: cattle
Poliovirus 1 = experiment: Antiviral activity against Human poliovirus 1 Sabin infected in african green monkey Vero76 cells assessed as inhibition of virus-induced cytopathogenicity by plaque reduction assay; format: functional, organism-based; settings: Enterovirus C, Vero 76
[3] = test system: Mammalian orthoreovirus 1; experiment: Antiviral activity against Reo-1 virus infected in BHK-21 cells assessed as inhibition of virus-induced cytopathogenicity after 3 to 4 days by MTT assay; format: functional, cell-based; settings: Mammalian orthoreovirus 1, BHK-21
Human orthopneumovirus = experiment: Antiviral activity against human RSV infected in african green monkey Vero76 cells assessed as inhibition of virus-induced cytopathogenicity after 5 days by plaque reduction assay; format: functional, organism-based; settings: human respiratory syncytial virus, Vero 76, 120 h
[4] = Cytotoxicity against BHK cells assessed as cell viability after 48 to 96 hrs by MTT assay; format: cell-based, Mesocricetus auratus; settings: hamster
[5] = test system: Human immunodeficiency virus 1; experiment: Antiviral activity against HIV-1 infected in MT4 cells assessed as inhibition of virus-induced cytopathogenicity after 4 days by MTT assay; format: functional, organism-based; settings: Human immunodeficiency virus 1, MT4, 96 h
[6] = test system: Vesicular stomatitis virus; experiment: Antiviral activity against VSV; format: functional, organism-based
Yellow fever virus = experiment: Antiviral activity against YFV infected in BHK-21 cells assessed as inhibition of virus-induced cytopathogenicity after 3 to 4 days by MTT assay; format: functional, organism-based
[7] = test system: Bovine viral diarrhea virus 1; experiment: Antiviral activity against BVDV infected in MDBK cells assessed as inhibition of virus-induced cytopathogenicity after 3 to 4 days by MTT assay; format: functional, organism-based; settings: Bovine viral diarrhea virus isolates and strains
[8] = Cytotoxicity against african green monkey Vero 76 cells assessed as cell viability after 48 to 96 hrs by crystal violet staining method; format: cell-based; settings: chlorocebus sabaeus
Human alphaherpesvirus 1 = experiment: Antiviral activity against HSV1; format: functional, organism-based

Structure (SMILES) | EC50 (Coxsackievirus B5) [µM] | CC50 at 96 h [1] [µM] | EC50 (Vaccinia virus) [µM] | CC50 [2] [µM] | EC50 (Poliovirus 1) [µM] | EC50 [3] [µM] | EC50 (Human orthopneumovirus) [µM] | CC50 [4] [µM] | EC50 [5] [µM] | EC50 [6] [µM] | EC50 (Yellow fever virus) [µM] | EC50 [7] [µM] | CC50 [8] [µM] | EC50 (Human alphaherpesvirus 1) [µM]
COc1ccc(-n2nc3cc(Cl)c(Cl)cc3n2)cc1 | > 100 | > 100 | > 100 | > 100 | > 100 | > 100 | > 100 | > 100 | > 100 | > 100 | > 100 | > 100 | > 100 | 
C[C@@H](Oc1ccc(-n2nc3ccccc3n2)cc1)C(=O)O | > 100 | > 100 | > 100 | > 100 | > 100 |  | > 100 | > 100 | > 100 | > 100 | > 100 | > 100 | > 100 | 
CN1CCN(CCn2nnc3ccccc32)CC1 | > 100 | > 100 | > 100 | > 100 |  |  | > 100 | > 100 | > 100 | > 100 | > 100 | > 100 | > 100 | 
COc1cc(C(=O)OCCn2nnc3ccccc32)cc(OC)c1OC | > 100 | 1.9 | > 100 | 40 |  |  | > 100 | 70 | > 100 | > 100 | > 100 | > 100 | 80 | 
O=C(O)COc1ccc(-n2nc3ccccc3[n+]2[O-])cc1 | > 100 | > 100 | > 100 | > 100 | > 100 | > 100 | > 100 | > 100 | > 100 | > 100 | > 100 | > 100 | > 100 | 
COc1cc(C(=O)OCCCn2nnc3ccccc32)cc(OC)c1OC | > 100 | > 100 | > 100 | ≥ 100 |  |  | > 100 | > 100 | > 100 | > 100 | > 100 | > 100 | 100 | 
[O-][n+]1c2ccccc2nn1-c1ccc(O)cc1 | > 100 | > 100 | > 100 | > 100 | > 100 | > 100 | > 100 | > 100 | > 100 | > 100 | > 100 | > 100 | > 100 | 
C[C@H](Oc1ccc(-n2nc3ccccc3n2)cc1)C(=O)O | > 100 | > 100 | > 100 | > 100 | > 100 |  | > 100 | > 100 | > 100 | > 100 | > 100 | > 100 | > 100 | 
COc1cc(C(=O)OCCCn2nc3ccccc3n2)cc(OC)c1OC | > 100 | > 100 | > 100 | > 100 |  |  | > 100 | > 100 | > 100 | > 100 | > 100 | > 100 | > 100 | 
CN(C)c1cccc(C(=O)OCCn2nnc3ccccc32)c1 | > 100 | 65 | > 100 | ≥ 100 |  |  | > 100 | > 100 | > 100 | > 100 | > 100 | > 100 | ≥ 100 | 
COc1cc(/C=C/C(=O)OCCn2nnc3ccccc32)cc(OC)c1OC | > 100 | 45 | > 100 | 70 |  |  | > 100 | > 100 | > 100 | > 100 | > 100 | > 100 | > 100 | 
Clc1c(Cl)c(Cl)c2c(nnn2C2CCCO2)c1Cl (stereo unspecified) |  | 95 |  |  |  |  |  |  | > 100 |  |  |  |  | 
CN(C)C(=O)Cn1nnc2ccccc21 | > 100 | > 100 | > 100 | > 100 |  |  | > 100 | > 100 | > 100 | > 100 | > 100 | > 100 | > 100 | 
O=C(O)COc1ccc(-n2nc3ccc(Cl)cc3[n+]2[O-])cc1 | > 100 | > 100 | > 100 | > 100 | > 100 | > 100 | > 100 | > 100 | > 100 | > 100 | > 100 | > 100 | 100 | 
COc1cc(/C=C/C(=O)OCCCn2nnc3ccccc32)cc(OC)c1OC | > 100 | > 100 | > 100 | 83 |  |  | > 100 | > 100 | > 100 | > 100 | > 100 | > 100 | > 100 | 
COc1cc(/C=C/C(=O)OCCn2nc3ccccc3n2)cc(OC)c1OC | > 100 | ≥ 100 | > 100 | > 100 |  |  | > 100 | > 100 | > 100 | > 100 | > 100 | > 100 | > 100 | 
CN(C)C(=O)Cn1nc2ccccc2n1 | > 100 | > 100 | > 100 | > 100 |  |  | > 100 | > 100 | > 100 | > 100 | > 100 | > 100 | > 100 | 
COc1cc(C(=O)OCCn2nc3ccccc3n2)cc(OC)c1OC | > 100 | 0.3 | > 100 | 6 |  |  | > 100 | 26 | > 100 | > 100 | > 100 | > 100 | 1.6 | 
O=C(Cn1nnc2ccccc21)N1CCOCC1 | > 100 | > 100 | > 100 | > 100 |  |  | > 100 | > 100 | > 100 | > 100 | > 100 | > 100 | > 100 | 
NNC(=O)Cn1nnc2ccccc21 | > 100 | > 100 | > 100 | > 100 |  |  | > 100 | > 100 | > 100 | > 100 | > 100 | > 100 | > 100 | 
Clc1cc2nn(C3CCCO3)nc2cc1Cl (stereo unspecified) |  | > 100 |  | > 100 |  |  |  | > 100 | > 100 |  | > 100 | > 100 |  | 
Nc1nc2c(ncn2COCCO)c(=O)[nH]1 [ACYCLOVIR] | > 100 | > 100 | > 100 | > 100 | > 100 |  | > 100 | > 100 |  | > 100 | > 100 | > 100 | > 100 | 1.2
NCCn1nnc2ccccc21 | > 100 | > 100 | > 100 | > 100 |  |  | > 100 | > 100 | > 100 | > 100 | > 100 | > 100 | > 100 | 
CC(CC(=O)O)n1nc2ccc([N+](=O)[O-])cc2n1 (stereo unspecified) | > 100 | > 100 | > 100 | > 100 |  |  | > 100 | > 100 | > 100 | > 100 | > 100 | > 100 | > 100 | 
Cc1cc2nnn(C3CCCO3)c2cc1C (stereo unspecified) |  | > 100 |  | > 100 |  |  |  | > 100 | > 100 |  | > 100 | > 100 |  | 
CC(CC(=O)O)n1nnc2ccc([N+](=O)[O-])cc21 (stereo unspecified) | > 100 | > 100 | > 100 | > 100 |  |  | > 100 | > 100 | > 100 | > 100 | > 100 | > 100 | > 100 | 
Clc1cc2nnn(C3CCCO3)c2cc1Cl (stereo unspecified) |  | > 100 |  | > 100 |  |  |  | > 100 | > 100 |  | > 100 | > 100 |  | 
CC(CC(=O)O)n1nc2ccc3ccccc3c2n1 (stereo unspecified) | > 100 | > 100 | > 100 | > 100 |  |  | > 100 | > 100 | > 100 | > 100 | > 100 | > 100 | > 100 | 
O=C(Cn1nc2ccccc2n1)N1CCOCC1 | > 100 | > 100 | > 100 | > 100 |  |  | > 100 | > 100 | > 100 | > 100 | > 100 | > 100 | > 100 | 
